Measurements published in US12358915B2, “METTL3 inhibitory compounds” (STORM THERAPEUTICS LTD., priority 2019, dated 2025).

Target: T1, METTL3/14 (Homo sapiens, UniProt Q86U44)
T1 construct: The enzyme used was full-length his-tagged METTL3; His; made in house
Test: METTL3/14 methyltransferase assay (METTL3_14 RFMS, RapidFire mass spectrometry);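 further: recombinant His-tagged METTL3 with FLAG-tagged METTL14 from baculovirus, SAH product quantified by mass spectrometry against isotope-labelled internal standards, 60 min at room temperature, scaled between no-RNA and DMSO-only wells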
Assay type: biochemical
Conditions: 5 nM METTL3/14, 0.2 μM RNA substrate, 0.5 μM SAM; lower limit of the assay IC50=5 nM; Compounds 1-62; read-out: METTL3_14 RFMS IC50

T1 sequence (Q86U44 whole entry): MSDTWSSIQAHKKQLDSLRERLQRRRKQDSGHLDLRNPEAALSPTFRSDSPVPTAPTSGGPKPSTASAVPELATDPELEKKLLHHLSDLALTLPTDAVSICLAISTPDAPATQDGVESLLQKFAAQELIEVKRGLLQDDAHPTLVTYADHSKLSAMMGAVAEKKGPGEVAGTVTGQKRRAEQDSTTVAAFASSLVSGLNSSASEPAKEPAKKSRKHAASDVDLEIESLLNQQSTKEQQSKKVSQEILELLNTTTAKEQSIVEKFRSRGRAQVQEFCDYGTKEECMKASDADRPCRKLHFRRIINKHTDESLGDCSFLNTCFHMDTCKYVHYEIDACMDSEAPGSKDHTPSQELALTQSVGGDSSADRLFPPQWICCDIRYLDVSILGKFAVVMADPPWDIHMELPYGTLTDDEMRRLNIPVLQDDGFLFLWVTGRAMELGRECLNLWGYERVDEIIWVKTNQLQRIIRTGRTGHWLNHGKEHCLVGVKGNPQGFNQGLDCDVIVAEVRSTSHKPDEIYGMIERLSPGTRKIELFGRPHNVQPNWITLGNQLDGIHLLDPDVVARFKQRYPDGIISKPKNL
T1 sequence (Q9HCE5 whole entry partner): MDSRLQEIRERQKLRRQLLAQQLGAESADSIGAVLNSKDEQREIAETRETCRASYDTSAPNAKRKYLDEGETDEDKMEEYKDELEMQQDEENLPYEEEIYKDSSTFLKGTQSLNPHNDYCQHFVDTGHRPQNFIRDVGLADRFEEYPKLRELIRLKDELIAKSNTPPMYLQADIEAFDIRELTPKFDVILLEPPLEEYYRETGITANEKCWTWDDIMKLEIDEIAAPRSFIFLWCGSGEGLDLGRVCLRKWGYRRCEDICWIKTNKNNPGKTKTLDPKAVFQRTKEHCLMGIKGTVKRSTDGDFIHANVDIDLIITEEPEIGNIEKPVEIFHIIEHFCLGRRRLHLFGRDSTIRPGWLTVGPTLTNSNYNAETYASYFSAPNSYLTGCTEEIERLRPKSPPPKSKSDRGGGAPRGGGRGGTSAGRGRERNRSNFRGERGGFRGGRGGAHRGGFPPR

Row | SMILES | IC50 [nM]
1 | COc1ccn2cc(CNC(=O)c3cc(=O)n4ccccc4n3)nc2c1 [Compound 25, N-({7-methoxyimidazo[1,2-a]pyridin-2-yl}methyl)-4-oxo-4H-pyrido[1,2-a]pyrimidine-2-carboxamide] | 543
2 | O=C(NCc1cn2cc(Br)ccc2n1)c1cc(=O)n2ccccc2n1 [Compound 23, N-({6-bromoimidazo[1,2-a]pyridin-2-yl}methyl)-4-oxo-4H-pyrido[1,2-a]pyrimidine-2-carboxamide] | 1790
3 | O=C(NCc1cn2cc(Br)ccc2n1)c1cccc2[nH]ncc12 [Compound 3, N-({6-bromoimidazo[1,2-a]pyridin-2-yl}methyl)-1H-indazole-4-carboxamide] | 4660
4 | Cc1ccc2nc(CNC(=O)c3cc(=O)c4ccccc4o3)cn2c1 [Compound 12, N-({6-methylimidazo[1,2-a]pyridin-2-yl}methyl)-4-oxo-4H-chromene-2-carboxamide] | 1410
5 | CC(O)c1ccc2nc(CNC(=O)c3cccc4[nH]ncc34)cn2c1 (stereo not shown) [Compound 47, N-{[6-(1-hydroxyethyl)imidazo[1,2-a]pyridin-2-yl]methyl}-1H-indazole-4-carboxamide] | 3980
6 | O=C(NCc1cn2cc(-c3ccn[nH]3)ccc2n1)c1cccc2[nH]ncc12 [Compound 35, N-{[6-(1H-pyrazol-5-yl)imidazo[1,2-a]pyridin-2-yl]methyl}-1H-indazole-4-carboxamide] | 15800
7 | Cc1ccc2nc(CNC(=O)c3cc(-c4ccn[nH]4)cc4[nH]ncc34)cn2c1 [Compound 8, N-({6-methylimidazo[1,2-a]pyridin-2-yl}methyl)-6-(1H-pyrazol-5-yl)-1H-indazole-4-carboxamide] | 4560
8 | O=C(NCc1cn2cc(F)ccc2n1)c1cccc2[nH]ncc12 [Compound 6, N-({6-fluoroimidazo[1,2-a]pyridin-2-yl}methyl)-1H-indazole-4-carboxamide] | 9120
9 | O=C(NCc1cn2cc(CNCC(F)(F)F)ccc2n1)c1cccc2[nH]ncc12 [Compound 46, N-[(6-{[(2,2,2-trifluoroethyl)amino]methyl}imidazo[1,2-a]pyridin-yl)methyl]-1H-indazole-4-carboxamide] | 2210
10 | O=C(NCc1cn2cc(CNCCCc3ccccc3)ccc2n1)c1cc(=O)n2ccccc2n1 [Compound 55, 4-oxo-N-[(6-{[(3-phenylpropyl)amino]methyl}imidazo[1,2-a]pyridin-2-yl)methyl]-4H-pyrido[1,2-a]pyrimidine-2-carboxamide] | 87
11 | CC(O)c1ccc2nc(CNC(=O)c3cc(=O)n4ccccc4n3)cn2c1 (stereo not shown) [Compound 57, N-{[6-(1-hydroxyethyl)imidazo[1,2-a]pyridin-2-yl]methyl}-oxo-4H-pyrido[1,2-a]pyrimidine-2-carboxamide] | 702

Same assay, conditions: 5 nM METTL3/14, 0.2 μM RNA substrate, 0.5 μM SAM; lower limit of the assay IC50=5 nM; Compounds 63-265; read-out: METTL3_14 RFMS IC50

Row | SMILES | IC50 [nM]
12 | O=C(NCc1cn2cc(CN3CCC(Cc4ccccc4)CC3)ccc2n1)c1cc(=O)n2ccccc2n1 [Compound 155, N-({6-[(4-benzylpiperidin-1-yl)methyl]imidazo[1,2-a]pyridin-2-yl}methyl)-4-oxo-4H-pyrido [1,2-a]pyrimidine-2-carboxamide] | 177
13 | O=C(NCc1cn2cc(CNCCC3CCCC3)ccc2n1)c1cc(=O)n2ccccc2n1 [Compound 163, N-[(6-{[(2-cyclopentylethyl)amino]methyl}imidazo[1,2-a]pyridin-2-yl)methyl]-4-oxo-4H-pyrido[1,2-a]pyrimidine-2-carboxamide] | 80.1
14 | CC(C)(C)OC(=O)N1CCCC(CNCc2ccc3nc(CNC(=O)c4cc(=O)n5ccccc5n4)cn3c2)C1 (stereo not shown) [Compound 100, tert-butyl 3-{[({2-[({4-oxo-4H-pyrido[1,2-a]pyrimidin-2-yl}formamido)methyl]imidazo [1,2-a]pyridin-6-yl}methyl)amino]methyl}piperidine-1-carboxylate] | 1380
15 | CC(C)(C)OCCNCc1ccc2nc(CNC(=O)c3cc(=O)n4ccccc4n3)cn2c1 [Compound 152, N-{[6-({[2-(tert-butoxy)ethyl]amino}methyl)imidazo[1,2-a]pyridin-2-yl]methyl}-4-oxo-4H-pyrido[1,2-a] pyrimidine-2-carboxamide] | 104
16 | O=C(NCc1cn2cc(CNCC(F)F)ccc2n1)c1cc(=O)n2ccccc2n1 [Compound 119, N-[(6-{[(2,2-difluoroethyl)amino]methyl}imidazo[1,2-a]pyridin-2-yl)methyl]-4-oxo-4H-pyrido[1,2-a] pyrimidine-2-carboxamide] | 578
17 | O=C(NCc1cn2cc(CN3CCC(C(F)(F)F)CC3)ccc2n1)c1cc(=O)n2ccccc2n1 [Compound 138, 4-oxo-N-[(6-{[4-(trifluoromethyl)piperidin-1-yl]methyl}imidazo [1,2-a]pyridin-2-yl)methyl]-4H-pyrido[1,2-a] pyrimidine-2-carboxamide] | 31.4
18 | O=C(NCc1cn2cc(CN3CCCCC3)ccc2n1)c1cc(=O)c2ccccc2o1 [Compound 219, 4-oxo-N-({6-[(piperidin-1-yl)methyl]imidazo[1,2-a]pyridin-2-yl}methyl)-4H-chromene-2-carboxamide] | 247
19 | COc1cccc2c1OCC(c1ccc3nc(CNC(=O)c4cc(=O)n5ccccc5n4)cn3c1)NC2 (stereo not shown) [Example 234, N-{[6-(9-methoxy-2,3,4,5-tetrahydro-1,4-benzoxazepin-3-yl)imidazo[1,2-a]pyridin-2-yl]methyl}-4-oxo-4H-pyrido[1,2-a]pyrimidine-2-carboxamide] | 3440
20 | CC1(C)CCN(Cc2ccc3nc(Cn4cc(-c5cc(Br)cc6[nH]ncc56)nn4)cn3c2)CC1 [Example 227, 6-bromo-4-[1-({6-[(4,4-dimethylpiperidin-1-yl)methyl]imidazo[1,2-a]pyridin-2-yl}methyl)-1H-1,2,3-triazol-4-yl]-1H-indazole] | 7.9
21 | CN(Cc1ccc2nc(CNC(=O)c3cc(=O)n4ccccc4n3)cn2c1)CC(C)(C)C [Compound 205, N-[(6-{[(2,2-dimethylpropyl) (methyl)amino]methyl}imidazo [1,2-a]pyridin-2-yl)methyl]-4-oxo-4H-pyrido [1,2-a]pyrimidine-2-carboxamide] | 197
22 | O=C(NCc1cn2cc(CNC3CC3)ccc2n1)c1cc(=O)n2ccccc2n1 [Compound 109, N-({6-[(cyclopropyl-amino)methyl]imidazo[1,2-a]pyridin-2-yl}methyl)-4-oxo-4H-pyrido[1,2-a] pyrimidine-2-carboxamide] | 350
23 | O=C(NCc1cn2cc([C@H]3COC[C@@H](C4CCCCC4)N3)ccc2n1)c1cc(=O)n2ccccc2n1 [Example 230, N-({6-[(3S,5R)-5-cyclohexylmorpholin-3-yl]imidazo[1,2-a]pyridin-2-yl}methyl)-4-oxo-4H-pyrido[1,2-a]pyrimidine-2-carboxamide] | 81.3
24 | C[C@H](NCc1ccc2nc(CNC(=O)c3cc(=O)n4ccccc4n3)cn2c1)c1ccccc1 [Compound 76, 4-oxo-N-{[6-({[(1S)-1-phenylethyl]amino}methyl)imidazo [1,2-a]pyridin-2-yl]methyl}-4H-pyrido[1,2-a] pyrimidine-2-carboxamide] | 30
25 | CC(=O)N1CCN(Cc2ccc3nc(CNC(=O)c4cc(=O)n5ccccc5n4)cn3c2)CC1 [Compound 167, N-({6-[(4-acetylpiperazin-1-yl)methyl]imidazo[1,2-a]pyridin-2-yl}methyl)-4-oxo-4H-pyrido[1,2-a]pyrimidine-2-carboxamide] | 8070
26 | CC1(NCc2ccc3nc(CNC(=O)c4cc(=O)n5ccccc5n4)cn3c2)CCCC1 [Compound 148, N-[(6-{[(1-methylcyclopentyl)amino]methyl}imidazo[1,2-a]pyridin-2-yl)methyl]-4-oxo-4H-pyrido [1,2-a]pyrimidine-2-carboxamide] | 28.5
27 | CC(C)(C)CCNCc1ccc2nc(CNC(=O)c3cc(=O)n4ccccc4n3)cn2c1 [Compound 93, N-[(6-{[(3,3-dimethylbutyl)amino]methyl}imidazo[1,2-a]pyridin-2-yl)methyl]-4-oxo-4H-pyrido[1,2-a] pyrimidine-2-carboxamide] | 13
28 | CC(C)(C)OC(=O)N1CCCCC1CNCc1ccc2nc(CNC(=O)c3cc(=O)n4ccccc4n3)cn2c1 (stereo not shown) [Compound 102, tert-butyl 2-{[({2-[({4-oxo-4H-pyrido[1,2-a]pyrimidin-2-yl} formamido)methyl]imidazo[1,2-a]pyridin-6-yl}methyl)amino]methyl}piperidine-1-carboxylate] | 429

Same assay, conditions: 5 nM METTL3/14, 0.2 μM RNA substrate, 0.5 μM SAM; lower limit of the assay IC50=5 nM; Compounds 266-351; read-out: METTL3_14 RFMS IC50

Row | SMILES | IC50 [nM]
29 | O=C(NCc1cn2cc(CNC[C@H]3C[C@H]4CC[C@@H]3C4)ccc2n1)c1cc(=O)n2ccccc2n1 [Compound 348, N-({6-[({[(1R,2S,4S)-bicyclo[2.2.1]heptan-2-yl]methyl}amino)methyl]imidazo[1,2-a]pyridin-2-yl}methyl)-4-oxo-4H-pyrido[1,2-a]pyrimidine-2-carboxamide] | 9.02
30 | COc1cc(Br)cc2c1OCC(c1ccc3nc(CNC(=O)c4cc(=O)n5ccccc5n4)cn3c1)NC2 (stereo not shown) [Example 332] | 1700
31 | c1cc(-n2cc(Cc3cn4ccccc4n3)nn2)c2cn[nH]c2c1 [Example 336, 4-(4-(imidazo[1,2-a]pyridin-2-ylmethyl)-1H-1,2,3-triazol-1-yl)-1H-indazole] | 4160
32 | O=C(NCc1cn2cc(CN3CC4CCC3C4)ccc2n1)c1cc(=O)n2ccccc2n1 (stereo not shown) [Compound 350, N-{[6-({2-azabicyclo[2.2.1]heptan-2-yl}methyl)imidazo[1,2-a]pyridin-2-yl]methyl}-4-oxo-4H-pyrido[1,2-a]pyrimidine-2-carboxamide] | 56.2
33 | O=C(NCc1cn2cc(CN3CC4CCC3CC4)ccc2n1)c1cc(=O)n2ccccc2n1 [Compound 351, N-{[6-({2-azabicyclo[2.2.2]octan-2-yl}methyl)imidazo[1,2-a]pyridin-2-yl]methyl}-4-oxo-4H-pyrido[1,2-a]pyrimidine-2-carboxamide] | 24.1

Same assay, conditions: read-out: IC50

Row | SMILES | IC50 [nM]
34 | O=C(NCc1cn2cc(CNCCCc3ccccc3)ccc2n1)c1cc(=O)n2ccccc2n1 [Compound 55, 4-oxo-N-[(6-{[(3-phenylpropyl)amino]methyl}imidazo[1,2-a]pyridin-2-yl)methyl]-4H-pyrido[1,2-a]pyrimidine-2-carboxamide] | 66
